From patent US20240398831A1, “COMPOSITIONS COMPRISING SMALL MOLECULE REGULATORS OF TUMOR IMMUNITY AND METHODS OF USING SAME” (Duke University, priority 2021, published 2024)

Tested on: B16F10 cells
Assay: Proliferation assay
Format: cell-based, mouse
Conditions: E2 0.01-1 nM, 3 days
Protocol: ERα+ MCF7 cells served as a positive control. Cells were treated as either mock transfected or transfected with scrambled control or three different siRNA targeting Esr1. […] Esr1 was first normalized to Rplp0 and then Esr1 knockdown samples were normalized to a non-targeting control. RNA was collected from both cell lines after 48 hr of siRNA transfection. […] Mouse ovary served as a positive control. […] ERα+MCF7 cells served as a positive control (FIG. 5E, left). […] Data are expressed as individual data points and represented as mean±S.E.M. Significance was calculated by Student's t test or two-way ANOVA (FIGS. 5E-5F), followed by Bonferroni's multiple correction (**p<0.0001).
Proliferation assay. For proliferation assays, B16F10 cells were plated in DMEM media (without phenol red) supplemented with 10% charcoal-stripped FBS. Cells were plated at a concentration of 1000 cells/well of a 96-well plate for 2 days in 200 μL of media. […] Cells were collected every 24 hr by discarding the media from the plates. Plates were frozen at −80° C. […] Cell numbers were determined by the addition of 100 μL of (conc.) DNA dye […] dye (Sigma Cat #94403) in TNE buffer (10 mM Tris, 2M NaCl and 1 mM EDTA) and the fluorescence was read at an excitation of 360 nm and an emission at 465 nm using a microplate reader.

For 17β-estradiol [E2], the proliferation was “nor did it support proliferation”.
